Measurements reported in ChEMBL document CHEMBL6078668, “Synthesis and biological evaluation of lappaconitine analogues as potential anti-neuroinflammatory agents by side chain modification and scaffold hopping strategy” (Bioorg Med Chem, 2025).

Key:
[1] = Cytotoxicity against C57BL/6 mouse BV-2 cells assessed as survival rate at 30 uM incubated for 24 hrs by MTT assay relative to control; type: toxicity, cell-based; settings: read-out: Survival
[2] = test system: BV-2; assay: Anti-neuroinflammatory activity against LPS-stimulated C57BL/6 mouse BV-2 cells assessed as inhibition of NO release at 30 uM preincubated with compound for 4 hrs followed by LPS addition and measured after 24 hrs by Griess reagent based assay relative to control; type: functional; settings: C57BL/6, BV-2, time 28 hrs

| SMILES | viability at 24 h, 30 µM [1] [%] | inhibition at 30 µM [2] [%] |
| --- | --- | --- |
| CCN1C[C@]2(OC(=O)c3ccccc3NC(=O)S(=O)(=O)c3ccc(OC)cc3)CC[C@H](OC)[C@]34C1[C@@H](C[C@H]23)[C@@]1(O)C[C@H](OC)[C@H]2C[C@@H]4[C@]1(O)[C@H]2OC | 92.4 | 10.8 |
| COC(=O)c1ccccc1NS(=O)(=O)c1ccc(Br)s1 | 99.1 | 43.8 |
| CCN1C[C@]2(OC(=O)c3ccccc3NC(=O)S(=O)(=O)c3csc4ccccc34)CC[C@H](OC)[C@]34C1[C@@H](C[C@H]23)[C@@]1(O)C[C@H](OC)[C@H]2C[C@@H]4[C@]1(O)[C@H]2OC | 100 | 30.7 |
| CCN1C[C@]2(OC(=O)c3ccccc3NC(=O)S(=O)(=O)c3ccc(C4CCCCC4)cc3)CC[C@H](OC)[C@]34C1[C@@H](C[C@H]23)[C@@]1(O)C[C@H](OC)[C@H]2C[C@@H]4[C@]1(O)[C@H]2OC | 93.7 | 38.5 |
| CCc1ccc(C(=O)Nc2ccccc2C(=O)OC)cc1 | 103 | 37.1 |
| CCN1C[C@]2(OC(=O)c3ccccc3NC(=O)S(C)(=O)=O)CC[C@H](OC)[C@]34C1[C@@H](C[C@H]23)[C@@]1(O)C[C@H](OC)[C@H]2C[C@@H]4[C@]1(O)[C@H]2OC | 102 | 5.1 |
| CCN1C[C@]2(OC(=O)c3ccccc3NC(=O)S(=O)(=O)c3cc(Cl)ccc3F)CC[C@H](OC)[C@]34C1[C@@H](C[C@H]23)[C@@]1(O)C[C@H](OC)[C@H]2C[C@@H]4[C@]1(O)[C@H]2OC | 95.1 | 36.1 |
| CCC(=O)Nc1ccccc1C(=O)O[C@@]12CC[C@H](OC)[C@]34C([C@@H](C[C@H]13)[C@@]1(O)C[C@H](OC)[C@H]3C[C@@H]4[C@]1(O)[C@H]3OC)N(CC)C2 | 96.1 | 19.1 |
| CCN1C[C@]2(OC(=O)c3ccccc3NC(=O)S(=O)(=O)c3ccc(C)cc3F)CC[C@H](OC)[C@]34C1[C@@H](C[C@H]23)[C@@]1(O)C[C@H](OC)[C@H]2C[C@@H]4[C@]1(O)[C@H]2OC | 106 | 26.4 |
| CCN1C[C@]2(OC(=O)c3ccccc3NC(=O)C3CCCC3)CC[C@H](OC)[C@]34C1[C@@H](C[C@H]23)[C@@]1(O)C[C@H](OC)[C@H]2C[C@@H]4[C@]1(O)[C@H]2OC | 107 | 37.9 |
| CCN1C[C@]2(OC(=O)c3ccccc3NC(=O)C3CCOC3)CC[C@H](OC)[C@]34C1[C@@H](C[C@H]23)[C@@]1(O)C[C@H](OC)[C@H]2C[C@@H]4[C@]1(O)[C@H]2OC (stereo partly drawn) | 109 | 32.4 |
| CCN1C[C@]2(OC(=O)c3ccccc3NC(=O)S(=O)(=O)c3ccc(OCc4ccccc4)cc3)CC[C@H](OC)[C@]34C1[C@@H](C[C@H]23)[C@@]1(O)C[C@H](OC)[C@H]2C[C@@H]4[C@]1(O)[C@H]2OC | 102 | 21.3 |
| O=C(Nc1ccccc1C(=O)O)c1ccc(Cl)s1 | 98.7 | 32.4 |
| CCN1C[C@]2(OC(=O)c3ccccc3NC(=O)S(=O)(=O)c3ccccc3[N+](=O)[O-])CC[C@H](OC)[C@]34C1[C@@H](C[C@H]23)[C@@]1(O)C[C@H](OC)[C@H]2C[C@@H]4[C@]1(O)[C@H]2OC | 104 | 20.5 |
| CCN1C[C@]2(OC(=O)c3ccccc3NC(=O)S(=O)(=O)c3cccc(C#N)c3)CC[C@H](OC)[C@]34C1[C@@H](C[C@H]23)[C@@]1(O)C[C@H](OC)[C@H]2C[C@@H]4[C@]1(O)[C@H]2OC | 108 | 7.4 |
| CCc1ccc(C(=O)Nc2ccccc2C(=O)OC[C@@]23CC[C@H](OC)[C@]45C([C@@H](C[C@H]24)[C@@]2(O)C[C@H](OC)[C@H]4C[C@@H]5[C@]2(O)[C@H]4O)N(CC)C3)cc1 | 104 | 15.5 |
| O=C(O)c1ccccc1NS(=O)(=O)c1cccc(F)c1 | 100 | 10.8 |
| CCN1C[C@]2(OC(=O)c3ccccc3NC(=O)S(=O)(=O)c3ccc(C#N)cc3Cl)CC[C@H](OC)[C@]34C1[C@@H](C[C@H]23)[C@@]1(O)C[C@H](OC)[C@H]2C[C@@H]4[C@]1(O)[C@H]2OC | 99.4 | 12.5 |
| CCN1C[C@]2(OC(=O)c3ccccc3NC(=O)S(=O)(=O)c3cc(OC)ccc3OC)CC[C@H](OC)[C@]34C1[C@@H](C[C@H]23)[C@@]1(O)C[C@H](OC)[C@H]2C[C@@H]4[C@]1(O)[C@H]2OC | 102 | 26.3 |
| CCN1C[C@]2(OC(=O)c3ccccc3NC(=O)c3ccccc3Cl)CC[C@H](OC)[C@]34C1[C@@H](C[C@H]23)[C@@]1(O)C[C@H](OC)[C@H]2C[C@@H]4[C@]1(O)[C@H]2OC | 104 | 12.8 |
| CCN1C[C@]2(OC(=O)c3ccccc3NC(=O)S(=O)(=O)c3ccc(NC(C)=O)cc3)CC[C@H](OC)[C@]34C1[C@@H](C[C@H]23)[C@@]1(O)C[C@H](OC)[C@H]2C[C@@H]4[C@]1(O)[C@H]2OC | 104 | 10.4 |
| CCN1C[C@]2(OC(=O)c3ccccc3NC(=O)S(=O)(=O)c3cccc([N+](=O)[O-])c3)CC[C@H](OC)[C@]34C1[C@@H](C[C@H]23)[C@@]1(O)C[C@H](OC)[C@H]2C[C@@H]4[C@]1(O)[C@H]2OC | 106 | 11.7 |
| O=C(O)c1ccccc1NS(=O)(=O)c1ccc(Br)s1 | 96.5 | 18.4 |
| CCN1C[C@]2(OC(=O)c3ccccc3NC(=O)S(=O)(=O)c3ccc(C(=O)OC)cc3)CC[C@H](OC)[C@]34C1[C@@H](C[C@H]23)[C@@]1(O)C[C@H](OC)[C@H]2C[C@@H]4[C@]1(O)[C@H]2OC | 104 | 15.7 |
| CCN1C[C@]2(OC(=O)c3ccccc3NC(=O)S(=O)(=O)c3ccc(Cl)cc3)CC[C@H](OC)[C@]34C1[C@@H](C[C@H]23)[C@@]1(O)C[C@H](OC)[C@H]2C[C@@H]4[C@]1(O)[C@H]2OC | 100 | 39.2 |
| CCN1C[C@]2(OC(=O)c3ccccc3NC(=O)S(=O)(=O)c3ccc(F)c(Cl)c3)CC[C@H](OC)[C@]34C1[C@@H](C[C@H]23)[C@@]1(O)C[C@H](OC)[C@H]2C[C@@H]4[C@]1(O)[C@H]2OC | 93.6 | 26.2 |
| CCCCOC(=O)c1ccccc1NC(=O)c1ccc(CC)cc1 | 103 | 30.4 |
| CCN1C[C@]2(OC(=O)c3ccccc3NC(=O)S(=O)(=O)c3ccc(Cl)nc3)CC[C@H](OC)[C@]34C1[C@@H](C[C@H]23)[C@@]1(O)C[C@H](OC)[C@H]2C[C@@H]4[C@]1(O)[C@H]2OC | 104 | 33.5 |
| CCN1C[C@]2(OC(=O)c3ccccc3NC(=O)c3ccc(F)cc3)CC[C@H](OC)[C@]34C1[C@@H](C[C@H]23)[C@@]1(O)C[C@H](OC)[C@H]2C[C@@H]4[C@]1(O)[C@H]2OC | 104 | 22.3 |
